Data on four molecules can be found in patent US11298314B2, “Injectable composition for localized fat reduction without pain, edema, and side effects, and method for preparing same” (AMI PHARM CO., LTD., priority 2017, dated 2022).

Structures are written as SMILES.

In data set [1] the test system is paw of the rats. Kind of data set: Rat paw edema. In kind it is in vivo, Sprague Dawley rats. To be noted: for degree of edema in words: 2 hours after administration, rat paw; for degree of edema, 1 hour after administration / degree of edema, 2 hours after administration / degree of edema, Immediately after administration: 0.1 ml into rat paw. As for the experimental part: (§1) To evaluate the degree of edema, each test compositions described above were injected into the paw of the rats. Specifically, male Sprague Dawley rats (6 weeks old) were purchased and used after one week of adaptation. The rats (body weight: 170˜200 g) were randomly selected and the thickness of the rat paw were measured with a caliper before the administration of the test compositions. In order to observe the edema, 0.1 ml of PBS and the various test compositions were administered to the paws of the rats. Measurements of the […] were performed by a caliper immediately before the injection, immediately after the injection, and 1 or 2 hours after the injection. In addition, when the thickness was measured, the skin lesion of the injection site was observed by photographing the sole of the paw (using a 4×4 cm scale).
The degree of edema was evaluated as 0 to 4 grades.

The nature of data set [2]: Formulation stability of PPC injectable preparations: property, transparency, particle size, pH. To be noted: for bile acid/PPC molar ratio below which a substantially stable formulation did not occur: PPC 5.0%; for bile acid concentration at which stable injectable preparations can be made: based on PPC 5.0%.
Protocol: The particle size was measured using a nano particle size analyzer (Microtrac Wave, MICROTRACT, USA). […] The transparency was measured using a spectrophotometer (CM-3600d, KONICA MINOLTA, JAPAN). The pH was measured with a pH meter (ST3100, OHAUS, GERMANY), and the isotonicity was measured with an osmotic pressure meter (Vapro 5600, Elitech Group, Tokyo, Japan), and viscosity was analyzed using a viscometer (Digital Viscometer CL-2, CAS, Korea).
The washed and sterilized preparation tank was charged with the water for injection (at room temperature), and phosphatidylcholine (PPC) and benzyl alcohol were added thereto, and the mixture was stirred at 200 RPM for 2 hours under the condition of nitrogen pressure, shading and room temperature. After the completion of stirring, the mixture was transferred to an ultra-high pressure homogenizer (Nano Disperser NLM100, Ilshin Autoclave, Korea) with a nitrogen pressure. Ultra-high pressure homogenization (dispersion) was carried out at 12,000 psi for 7 cycles, and the particles were finely pulverized. Then, the pH was adjusted. After filtration through a 0.2 μm filter, the vial was filled and sealed.
Specifically, the water for injection was put into the preparation tank which was cleaned and sterilized (room temperature), and sodium hydroxide was added to the water for injection. Then deoxycholic acid and benzyl alcohol were added, stirred and dissolved. Then, phosphatidylcholine was added thereto, and the mixture was stirred at 200 RPM for about 24 hours under shading, sealing, room temperature (25° C.), and nitrogen pressure. After completion of the stirring, the pH was adjusted (if necessary, with additional sodium hydroxide or hydrochloric acid), and it was filtered through a 0.2 μm filter, and filled into the vial and sealed.
Then glycocholic acid and benzyl alcohol were added, stirred and dissolved. Then, phosphatidylcholine was added thereto, and the mixture was stirred at 200 RPM for about 24 hours under shading, sealing, room temperature (25° C.), and nitrogen pressure. After completion of the stirring, the pH was adjusted (if necessary, with additional sodium hydroxide or 0.001-0.6% of hydrochloric acid), and it was filtered through a 0.2 μm filter, and filled into the vial and sealed.
The formulation stability of the PPC injectable compositions solubilized with glycocholic acid (GCA) in Tables 3 and 4 was evaluated immediately after the preparation and 30 days after the preparation (refrigerated storage).
For data set [3], the system named is sole of the rat paws. Kind of data set: Measurement of skin lesion (erythema) on rat paw.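 As to grade of skin lesion (erythema), 1 hour after administration: grades − to ++++ mean no to extremely severe erythema versus before injection.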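 As to grade of skin lesion (erythema), 2 hours after administration: grades − to ++++ mean no to extremely severe erythema versus before injection.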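 As to grade of skin lesion (erythema), Immediately after administration: grades − to ++++ mean no to extremely severe erythema versus before injection.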 In kind it is in vivo, Sprague Dawley rats. To be noted: for skin lesion (erythema) in words: 2 hours after administration. As for the experimental part: as §1
The grades of skin lesion were evaluated as 0 to 4 grades.

Data set [4] concerns tissues of the injected area (rat paw). Kind of data set: H&E staining histological test (inflammation) of injected rat paw. In kind it is in vivo, Sprague Dawley rats. To be noted: injected rat paw; for Inflammation (H&E), BA % (w/v) 1.0: bile acid single composition 1.0% (w/v). As to the method: The tissues of the injected area were dissected, fixed with 10% formalin, and then the specimen was prepared and images were captured using an optical microscope. The degree of inflammation was evaluated as follows.

Setting [5] is: bile acid single composition 1.0% (w/v).
The mark [6] stands for this setting: bile acid single composition 2.5% (w/v).
The mark [7] stands for this setting: bile acid single composition 5.0% (w/v).
Setting [8] is: bile acid single composition 7.5% (w/v).

`C[C@H](CCC(=O)O)[C@H]1CC[C@H]2[C@@H]3C[C@H](O)[C@@H]4C[C@H](O)CC[C@]4(C)[C@H]3CC[C@]12C` [HDCA, (4R)-4-[(3R,5R,6S,8S,9S,10R,13R,14S,17R)-3,6-dihydroxy-10,13-dimethyl-2,3,4,5,6,7,8,9,11,12,14,15,16,17-tetradecahydro-1H-cyclopenta[a]phenanthren-17-yl]pentanoic acid]: in data set [1] (listed as HDCA 2.5%), the “degree of edema in words” value was ““severe” and “extremely severe””. The “degree of edema, 1 hour after administration” value was “++ (moderate edema [++, (the degree of swelling was 20-40% compared to before the injection)])” in data set [1] (setting [5]); “++ (moderate edema [++, (the degree of swelling was 20-40% compared to before the injection)])” in data set [1] (setting [6]); “++++ (extremely severe edema [++++, (the degree of swelling was 60% or more compared to before the injection)])” in data set [1] (setting [7]); “++++ (extremely severe edema [++++, (the degree of swelling was 60% or more compared to before the injection)])” in data set [1] (setting [8]). The “degree of edema, 2 hours after administration” value in data set [1] (setting [5]) is “+++ (severe edema [+++, (the degree of swelling was 40-60% compared to before the injection)])”; in data set [1] (setting [6]) it was “+++ (severe edema [+++, (the degree of swelling was 40-60% compared to before the injection)])”; in data set [1] (setting [7]), “++++ (extremely severe edema [++++, (the degree of swelling was 60% or more compared to before the injection)])”; in data set [1] (setting [8]), “++++ (extremely severe edema [++++, (the degree of swelling was 60% or more compared to before the injection)])”. Also, the “degree of edema, Immediately after administration” value in data set [1] (setting [5]) was “++ (moderate edema [++, (the degree of swelling was 20-40% compared to before the injection)])”; in data set [1] (setting [6]), “++ (moderate edema [++, (the degree of swelling was 20-40% compared to before the injection)])”; in data set [1] (setting [7]), “++ (moderate edema [++, (the degree of swelling was 20-40% compared to before the injection)])”; in data set [1] (setting [8]), “++ (moderate edema [++, (the degree of swelling was 20-40% compared to before the injection)])”. In addition, in data set [2], the “bile acid/PPC molar ratio below which a substantially stable formulation did not occur” value is reported as “less than 0.95”. Moreover, the “bile acid concentration at which stable injectable preparations can be made” value (“bile acid concentration” for short) in data set [2] was no less than 2.3%. Besides, the “skin lesion (erythema) in words” value is “Mild” in data set [3] (listed as HDCA 1.0%); ““severe” and “extremely severe”” in data set [3] (listed as HDCA 2.5%). Besides, the “grade of skin lesion (erythema), 1 hour after administration” value in data set [3] (setting [5]) was “+”; in data set [3] (setting [6]), “+++”; in data set [3] (setting [7]), “++++”; in data set [3] (setting [8]), “++++”. The “grade of skin lesion (erythema), 2 hours after administration” value (shortened to “grade of skin lesion (erythema), 2 hours”) is on record as “+” in data set [3] (setting [5]), “+++” in data set [3] (setting [6]), “++++” in data set [3] (setting [7]) and “++++” in data set [3] (setting [8]). The “grade of skin lesion (erythema), Immediately after administration” value in data set [3] (setting [5]) was “+”; in data set [3] (setting [6]) it was “+”; in data set [3] (setting [7]), “+”; in data set [3] (setting [8]), “++”. Further, in data set [4], the “Inflammation (H&E), BA % (w/v) 1.0” value is reported as “+++”.
Regarding `C[C@H](CCC(=O)NCCS(=O)(=O)O)[C@H]1CC[C@H]2[C@@H]3[C@H](O)C[C@@H]4C[C@H](O)CC[C@]4(C)[C@H]3C[C@H](O)[C@]12C` [TCA, 2-[[(4R)-4-[(3R,5S,7R,8R,9S,10S,12S,13R,14S,17R)-3,7,12-trihydroxy-10,13-dimethyl-2,3,4,5,6,7,8,9,11,12,14,15,16,17-tetradecahydro-1H-cyclopenta[a]phenanthren-17-yl]pentanoyl]amino]ethanesulfonic acid], in data set [2], the “bile acid concentration” value is listed as no less than 2.5%. In addition, the “grade of skin lesion (erythema), 2 hours” value in data set [3] (setting [5]) is listed as “−”; in data set [3] (setting [6]), “+”; in data set [3] (setting [7]) it was “+”; in data set [3] (setting [8]), “++”. Moreover, in data set [4], the “Inflammation (H&E), BA % (w/v) 1.0” value is reported as “+”. In addition, the “Inflammation (H&E), BA % (w/v) 2.5” value in data set [4] (setting [6]) is recorded as “++”. For the same molecule, the “Inflammation (H&E), BA % (w/v) 5.0” value in data set [4] (setting [7]) was “++”.
For the molecule `C[C@H](CCC(=O)O)[C@H]1CC[C@H]2[C@@H]3[C@@H](O)C[C@@H]4C[C@H](O)CC[C@]4(C)[C@H]3CC[C@]12C` [UDCA, (4R)-4-[(3R,5S,7S,8R,9S,10S,13R,14S,17R)-3,7-dihydroxy-10,13-dimethyl-2,3,4,5,6,7,8,9,11,12,14,15,16,17-tetradecahydro-1H-cyclopenta[a]phenanthren-17-yl]pentanoic acid], the “degree of edema in words” value is “moderate” in data set [1] (listed as UDCA 1.0%); ““severe” and “extremely severe”” in data set [1] (listed as UDCA 2.5%). Moreover, the “degree of edema, 1 hour after administration” value was “++ (moderate edema [++, (the degree of swelling was 20-40% compared to before the injection)])” in data set [1] (setting [5]); “+++ (severe edema [+++, (the degree of swelling was 40-60% compared to before the injection)])” in data set [1] (setting [6]); “++++ (extremely severe edema [++++, (the degree of swelling was 60% or more compared to before the injection)])” in data set [1] (setting [7]); “++++ (extremely severe edema [++++, (the degree of swelling was 60% or more compared to before the injection)])” in data set [1] (setting [8]). Besides, the “degree of edema, 2 hours after administration” value in data set [1] (setting [5]) was “++ (moderate edema [++, (the degree of swelling was 20-40% compared to before the injection)])”; in data set [1] (setting [6]) it was “++++ (extremely severe edema [++++, (the degree of swelling was 60% or more compared to before the injection)])”; in data set [1] (setting [7]) it was “++++ (extremely severe edema [++++, (the degree of swelling was 60% or more compared to before the injection)])”; in data set [1] (setting [8]), “++++ (extremely severe edema [++++, (the degree of swelling was 60% or more compared to before the injection)])”. Besides, the “degree of edema, Immediately after administration” value in data set [1] (setting [5]) is “++ (moderate edema [++, (the degree of swelling was 20-40% compared to before the injection)])”; in data set [1] (setting [6]), “++ (moderate edema [++, (the degree of swelling was 20-40% compared to before the injection)])”; in data set [1] (setting [7]), “++ (moderate edema [++, (the degree of swelling was 20-40% compared to before the injection)])”; in data set [1] (setting [8]) it was “++ (moderate edema [++, (the degree of swelling was 20-40% compared to before the injection)])”. Also, the “bile acid/PPC molar ratio below which a substantially stable formulation did not occur” value in data set [2] is “less than 1.12”. Further, the “bile acid concentration” value in data set [2] is given as no less than 2.7%. Also, the “skin lesion (erythema) in words” value in data set [3] (listed as UDCA 1.0%) was “Moderate”; in data set [3] (listed as UDCA 2.5%), ““severe” and “extremely severe””. Moreover, the “grade of skin lesion (erythema), 1 hour after administration” value is recorded as “++” in data set [3] (setting [5]), “++” in data set [3] (setting [6]), “++++” in data set [3] (setting [7]) and “++++” in data set [3] (setting [8]). Further, the “grade of skin lesion (erythema), 2 hours” value is recorded as “++” in data set [3] (setting [5]), “+++” in data set [3] (setting [6]), “++++” in data set [3] (setting [7]) and “++++” in data set [3] (setting [8]). Moreover, the “grade of skin lesion (erythema), Immediately after administration” value in data set [3] (setting [5]) was “+”; in data set [3] (setting [6]), “++”; in data set [3] (setting [7]) it was “++”; in data set [3] (setting [8]), “++”. Besides, in data set [4], the “Inflammation (H&E), BA % (w/v) 1.0” value is “+++”.
In the case of `C[C@H](CCC(=O)O)[C@H]1CC[C@H]2[C@@H]3[C@H](O)C[C@@H]4C[C@H](O)CC[C@]4(C)[C@H]3C[C@H](O)[C@]12C` [CA, (4R)-4-[(3R,5S,7R,8R,9S,10S,12S,13R,14S,17R)-3,7,12-trihydroxy-10,13-dimethyl-2,3,4,5,6,7,8,9,11,12,14,15,16,17-tetradecahydro-1H-cyclopenta[a]phenanthren-17-yl]pentanoic acid], the “bile acid concentration” value in data set [2] is listed as no less than 2.2%.
